Measured values taken from patent US20240317741A1, “NAPHTHYRIDINE DERIVATIVE AS ATR INHIBITOR AND METHOD FOR PREPARING SAME” (WIGEN BIOMEDICINE TECHNOLOGY (SHANGHAI) CO., LTD., priority 2021, published 2024).

Key:
MIA PaCa-2 cells [1] = experiment: In-vitro anti-proliferative activity against MIA PaCa-2 cells; type: cell-based; conditions: Homo sapiens, 72 h after dosing, intracellular ATP content
Protocol: MIA PaCa-2 cells were seeded on a 384-well plate at 3000 cells/well. After overnight adherence culture, DMSO or the compounds serially diluted 1:5 from 5 μM were added. […] The inhibition percentage of viable cells by the compounds was calculated by comparing with the DMSO group, and the IC50 value was calculated.

MIA PaCa-2 cells [2] = experiment: In-vitro anti-proliferative activity in combination with gemcitabine against MIA PaCa-2 cells; type: cell-based; conditions: in combination with 20 nM gemcitabine, 72 h after dosing
Protocol: MIA PaCa-2 cells were seeded on a 384-well plate at 3000 cells/well, and 20 nM gemcitabine was added. After overnight adherence culture, DMSO or the compounds serially diluted 1:5 from 100 nM were added. […] The inhibition percentage of viable cells by the compounds was calculated by comparing with the DMSO group, and the IC50 value was calculated.

[3] = In vivo pharmacokinetic experiment in mice; design: species or system CD-1 female mice; conditions: female, CD-1, mouse, plasma
Protocol: CD-1 female mice aged 7 to 10 weeks were intravenously administered and orally administered at a dose of 2 mg/kg and 10 mg/kg, respectively. The mice were fasted for at least 12 h before the administration and given food 4 h after the administration, and they were given ad libitum access to water during the experiment.
On the day of the experiment, animals in the intravenous group were administered the corresponding compound by single injection via the tail vein at an administration volume of 10 mL/kg, and animals in the oral group were administered the corresponding compound by single intragastric injection at an administration volume of 10 mL/kg. The animals were weighed before administration, and the administration volume was calculated according to the body weight. The sample collection time was 0.083 h, 0.167 h, 0.5 h, 1 h, 2 h, 4 h, 8 h and 24 h. About 200 μL of whole blood was collected through the orbital venous plexus at each time point and used to prepare plasma for concentration determination by high performance liquid chromatography-tandem mass spectrometry (LC-MS/MS). The plasma concentrations were processed using a non-compartmental model of Winnolin pharmacokinetic software, and the pharmacokinetic parameters were calculated using a linear-log trapezoidal method.

[4] = Liver microsomal stability (mouse); type: in vitro ADME; conditions: mouse liver microsomes, 1 μM compound, NADPH regeneration system, 37° C.; read-out: T1/2 (min) Mouse
Protocol: (§1) After 1 μM compound was incubated with 500 µg/mL of human or mouse liver microsomes and a NADPH regeneration system at 37° C. for different times, respectively, LC-MS-MS was used to analyze the remaining amount of the compound and calculate T1/2.

[5] = Liver microsomal stability (human); type: in vitro ADME; conditions: human liver microsomes, 1 μM compound, NADPH regeneration system, 37° C.; read-out: T1/2 (min) Human
Protocol: as §1

[6] = tested on: Human colon cancer LOVO cells; experiment: In vivo efficacy in LoVo model; design: species or system nude mouse; conditions: LoVo model in nude mice, 20 mpk BID PO, days 1-3, 8-10, 15-17 and day 21
Protocol: After being subcultured, the cells were collected when they reached the desired amount. 1×10^7 LOVO cells were injected into the left dorsal side of each nude mouse, and the animals were randomly grouped for administration after tumors grew to 100-200 mm^3. The groups were as follows: a solvent control group of 8 mice and a compound group of 8 mice. The compounds were administered orally 3 days a week and interrupted for 4 days, for 21 consecutive days. The vehicle was a 0.5% MC suspension containing 1% tween-80. On Tuesday and Thursday each week, tumor volumes and body weight of the mice were measured, and the nude mice were sacrificed on day 21 after the administration. […] The toxicity of the compounds was evaluated according to the body weight of the mice.

[7] = tested on: Human colon cancer HT29 cells; experiment: In vivo efficacy in HT-29 model, alone and with gemcitabine; design: species or system nude mouse; conditions: HT-29 model in nude mice, GMC alone 15 mpk QW IP, once a week; day 21
Protocol: After being subcultured, the cells were collected when they reached the desired amount. 1×10^7 HT29 cells were injected into the left dorsal side of each nude mouse, and the animals were randomly grouped for administration after tumors grew to 100-200 mm^3. The groups were as follows: a solvent control group of 6 mice, a single drug group of 15 mg/kg gemcitabine (GMC), and a combination group of 15 mg/kg gemcitabine and a compound. Gemcitabine was administered intraperitoneally with PBS as a vehicle once a week. The compounds were administered 3 days a week and interrupted for 4 days (3 on/4 off), for 21 consecutive days, and the vehicle was a 0.5% MC suspension containing 1% tween-80. On Tuesday and Thursday each week, tumor volumes and body weight of the mice were measured, and the nude mice were sacrificed on day 21 after the administration. […] The toxicity of the compounds was evaluated according to the body weight of the mice.

SMILES | IC50 (MIA PaCa-2 cells [1]) [nM] | other results
C[C@@H]1COCCN1c1cc(C2(C#N)CCC(N3CCCC3)CC2)c2ccnc(-c3ccn[nH]3)c2n1 (some centres unmarked) [Compound 35] | < 1000 | IC50 (MIA PaCa-2 cells [2]): 0.661 nM
COC1CCC(C#N)(c2cc(N3CCOC[C@H]3C)nc3c(-c4ccn[nH]4)nccc23)CC1 (stereo partly drawn) [Compound 53, (R)-4-methoxy-1-(2-(3-methylmorpholine)-8-(1H-pyrazol-5-yl)-1,7-naphthyridin-4-yl)cyclohexane-1-carbonitrile] | < 1000 | AUC(0-t) ([3]; Oral administration (10 mg/kg)): 669 ng·h/mL; bioavailability ([3]; Oral administration (10 mg/kg)): 30.2%; half-life ([3]; Oral administration (10 mg/kg)): 87 min; Cmax ([3]; Oral administration (10 mg/kg), read-out: Cmax): 299 ng/mL; Tmax ([3]; Oral administration (10 mg/kg), read-out: Tmax): 30 min; AUC(0-t) ([3]; iv, Injection (2 mg/kg)): 444 ng·h/mL; clearance ([3]; iv, Injection (2 mg/kg)): 75.1 mL/min/kg; half-life ([3]; iv, Injection (2 mg/kg)): 16.2 min; Vd ([3]; iv, Injection (2 mg/kg), read-out: Vdss): 1.61 L/kg; half-life at 1 μM [4]: 7.78 min; half-life at 1 μM [5]: 24.8 min
C[C@@H]1COCCN1c1cc(C2(C#N)CCN(C3CCCC3)CC2)c2ccnc(-c3ccn[nH]3)c2n1 [Compound 69] | < 1000 | half-life at 1 μM [4]: 7.52 min; half-life at 1 μM [5]: 5.9 min
C[C@@H]1COCCN1c1cc(C2(C#N)CCC(N3CCC3)CC2)c2ccnc(-c3ccn[nH]3)c2n1 (some centres unmarked) [Compound 63] | < 1000 | –
CCOC1CCC(C#N)(c2cc(N3CCOC[C@H]3C)nc3c(-c4ccn[nH]4)nccc23)CC1 (some centres unmarked) [Compound 54] | < 1000 | –
C[C@@H]1COCCN1c1cc(C2(C#N)CCN(C3CC3)CC2)c2ccnc(-c3ccn[nH]3)c2n1 [Compound 46] | < 1000 | –
C[C@@H]1COCCN1c1cc(C(C#N)C2CCC2)c2ccnc(-c3ccn[nH]3)c2n1 (some centres unmarked) [Compound 20] | > 5000 | –
CC(=O)N1CCC(C#N)(c2cc(N3CCOC[C@H]3C)nc3c(-c4ccn[nH]4)nccc23)CC1 [Compound 38, (R)-1-acetyl-4-(2-(3-methylmorpholino)-8-(1H-pyrazol-5-yl)-1,7-naphthyridin-4-yl)piperidine-4-carbonitrile] | 1000 to 5000 | –
C[C@@H]1COCCN1c1cc(C2(C#N)CCC3(CC3)CC2)c2ccnc(-c3ccn[nH]3)c2n1 [Compound 32] | < 1000 | –
C[C@@H]1COCCN1c1cc(C2(C#N)CCN(C3CCC3)CC2)c2ccnc(-c3ccn[nH]3)c2n1 [Compound 68] | < 1000 | –
C[C@@H]1COCCN1c1cc(C2(C#N)CCC(OC3CCC3)CC2)c2ccnc(-c3ccn[nH]3)c2n1 (some centres unmarked) [Compound 58] | < 1000 | –
C[C@@H]1COCCN1c1cc(C2(C#N)CCN(CC(F)(F)F)CC2)c2ccnc(-c3ccn[nH]3)c2n1 [Compound 41, (R)-4-(2-(3-methylmorpholino)-8-(1H-pyrazol-5-yl)-1,7-naphthyridin-4-yl)-1-(2,2,2-trifluoroethyl)piperidine-4-carbonitrile] | < 1000 | –
C[C@@H]1COCCN1c1cc(C2(C#N)CCN(CC(=O)N(C)C)CC2)c2ccnc(-c3ccn[nH]3)c2n1 [Compound 77] | < 1000 | –
C[C@@H]1COCCN1c1cc(C2(C#N)CCN(CC(F)F)CC2)c2ccnc(-c3ccn[nH]3)c2n1 [Compound 42] | < 1000 | –
C[C@@H]1COCCN1c1cc(C(C#N)C2CCN(C)CC2)c2ccnc(-c3ccn[nH]3)c2n1 (some centres unmarked) [Compound 24] | 1000 to 5000 | –
C[C@@H]1COCCN1c1cc(C2(C#N)CCN(c3ccccc3F)CC2)c2ccnc(-c3ccn[nH]3)c2n1 [Compound 49] | < 1000 | –
C[C@@H]1COCCN1c1cc(C2(C#N)CC2)c2ccnc(-c3ccn[nH]3)c2n1 [Compound 28] | > 5000 | –
C[C@@H]1COCCN1c1cc(C2(C#N)CCC(OC3CCCC3)CC2)c2ccnc(-c3ccn[nH]3)c2n1 (some centres unmarked) [Compound 59] | < 1000 | –

SMILES | IC50 (MIA PaCa-2 cells [1]) [nM] | other results
CCOP(=O)(CCC(C#N)c1cc(N2CCOC[C@H]2C)nc2c(-c3ccn[nH]3)nccc12)OCC (some centres unmarked) [Compound 12] | 1000 to 5000 | –
C[C@@H]1COCCN1c1cc(C2(C#N)CCN(CC3CCOC3)CC2)c2ccnc(-c3ccn[nH]3)c2n1 (some centres unmarked) [Compound 84] | < 1000 | –
C[C@@H]1COCCN1c1cc(C(C#N)CC[S+](C)[O-])c2ccnc(-c3ccn[nH]3)c2n1 (some centres unmarked) [Compound 14] | > 5000 | –
CC#CC(C#N)c1cc(N2CCOC[C@H]2C)nc2c(-c3ccn[nH]3)nccc12 (some centres unmarked) [Compound 8] | > 5000 | –
C[C@@H]1COCCN1c1cc(C2(C#N)CCC(N3CCN(C)CC3)CC2)c2ccnc(-c3ccn[nH]3)c2n1 (some centres unmarked) [Compound 36] | < 1000 | –
CC(=O)N1CCCC(C#N)(c2cc(N3CCOC[C@H]3C)nc3c(-c4ccn[nH]4)nccc23)C1 (some centres unmarked) [Compound 40] | > 5000 | –
C[C@@H]1COCCN1c1cc(C2(C#N)CCSCC2)c2ccnc(-c3ccn[nH]3)c2n1 [Compound 30] | 1000 to 5000 | –
CCC(C#N)c1cc(N2CCOC[C@H]2C)nc2c(-c3ccn[nH]3)nccc12 (some centres unmarked) [Compound 4] | > 5000 | –
C[C@@H]1COCCN1c1cc(C2(C#N)CCCC2)c2ccnc(-c3ccn[nH]3)c2n1 [Compound 27] | 1000 to 5000 | half-life at 1 μM [4]: 9.14 min; half-life at 1 μM [5]: 27.2 min; TGI(%) [6]: 62.7%; IC50 (MIA PaCa-2 cells [2]): 1.48 nM
CCN(CC)C1CCC(C#N)(c2cc(N3CCOC[C@H]3C)nc3c(-c4ccn[nH]4)nccc23)CC1 (some centres unmarked) [Compound 62] | < 1000 | –
C[C@@H]1COCCN1c1cc(C(C#N)CC(N)=O)c2ccnc(-c3ccn[nH]3)c2n1 (some centres unmarked) [Compound 11] | 1000 to 5000 | –
C[C@@H]1COCCN1c1cc(C2(C#N)CC3CCC(C2)O3)c2ccnc(-c3ccn[nH]3)c2n1 (stereo partly drawn) [Compound 85, 3-(2-((R)-3-methylmorpholino)-8-(1H-pyrazol-5-yl)-1,7-naphthyridin-4-yl)-8-oxabicyclo[3.2.1]octane-3-carbonitrile] | < 1000 | –
C[C@@H]1COCCN1c1cc(C(C#N)C2CCOCC2)c2ccnc(-c3ccn[nH]3)c2n1 (some centres unmarked) [Compound 22] | 1000 to 5000 | –
Nc1ccn([C@@H]2O[C@H](CO)[C@@H](O)C2(F)F)c(=O)n1 [GMC, gemcitabine, reference compound] | – | TGI(%) [7]: 50.7%
C[C@@H]1COCCN1c1cc(C(C#N)C2CCCCC2)c2ccnc(-c3ccn[nH]3)c2n1 (some centres unmarked) [Compound 21] | 1000 to 5000 | –
CC(C)OC1CCC(C#N)(c2cc(N3CCOC[C@H]3C)nc3c(-c4ccn[nH]4)nccc23)CC1 (some centres unmarked) [Compound 55] | < 1000 | –
C[C@@H]1COCCN1c1cc(C(C#N)CCN)c2ccnc(-c3ccn[nH]3)c2n1 (some centres unmarked) [Compound 16] | 1000 to 5000 | –
